In patent publication US20230134986A1, “GLUCOSE TRIPTOLIDE CONJUGATES AND USES THEREOF” (The Johns Hopkins University, priority 2020, published 2023):
Entries after “also recorded” stand apart in the source; their conditions may differ.

Legend:
[1] = system: PC3; experiment: XTT viability assay, PC3; assay type: cell-based; settings: Homo sapiens, PC-3, Prostate Cancer
Source text: Cells and culture conditions. Primary astrocytes (Lonza, Walkersville, Md.; ABM™ Basal Media with AGM™ SingleQuots™ Supplement Pack), fibroblast (ATCC; Fibroblast Basal Medium (ATCC© PCS-201-030™) with Fibroblast Growth Kit-Serum-free (ATCC© PCS-201-040™)), airway epithelial cell (ATCC; Airway Epithelial Cell Basal Medium (ATCC© PCS-300-030™) with Bronchial Epithelial Cell Growth Kit (ATCC© PCS-300-040™)), renal proximal tubule (ATCC; Renal Epithelial Cell Basal Medium (ATCC© PCS-400-030™) with Renal Epithelial Cell Growth Kit (ATCC© PCS-400-040™)), prostate epithelial cell (Lonza; PrEGM™ BulletKit™) and mammary epithelial cell (Lonza; MEBM™ BulletKit™) were kept in a humidified incubator at 37° C. adjusted to 5% CO2. […]
XTT assay. […] Cell viability was measured using the R&D Systemsm TACS XTT Cell Proliferation/Viability Assay (R&D Systems, Minneapolis, Minn.).

[2] = system: DLD-1 GLUT1 knockout (GLUT1 KO) cells; experiment: DLD-1 GLUT1 knockout proliferation under hypoxia or normoxia; assay type: cell-based, human
[3] = system: HeLa; experiment: HeLa proliferation under hypoxia ([3H]-thymidine incorporation); assay type: cell-based, human; settings: 1% O2, 48 h post treatment
[4] = system: MCF-7; experiment: MCF-7 proliferation under hypoxia ([3H]-thymidine incorporation); assay type: cell-based, human; settings: MCF-7, 1% O2, 48 h post treatment
[5] = system: HepG2; experiment: HepG2 proliferation under hypoxia ([3H]-thymidine incorporation); assay type: cell-based, human; settings: HepG2, 1% O2, 48 h post treatment
[6] = system: RPB1 (RNAPII) in PC3 cells; experiment: RPB1 degradation in PC3 cells under hypoxia, immunocytochemistry and western blot; assay type: cell-based, human; settings: PC3, hypoxic but not normoxic conditions, 3 µM compound 1
Method: Western blot analysis. Whole cell lysates were prepared by adding lysis buffer [4% SDS, 20% glycerol, 10% 2-mercaptoethanol, 0.004% bromophenol blue, 0.125 M Tris-HCl (pH 6.8)] to the cell pellets for 30 minutes in ice followed by centrifugation at 12,000×g for 10 minutes then boiling for 5 minutes. For isolation of cytosolic and mitochondrial fractions of cytochrome C, cell pellets were resuspended in CLAMI buffer (250 mM sucrose, 70 mM KCl, […] digitonin in 1×PBS, protease inhibitor cocktail (1 tablet/10 ml CLAMI buffer)) then incubated on ice for 5 minutes. After centrifugation at 12,000×g for 5 minutes at 4° C., supernatant (cytoplasmic fraction) was collected and the pellet resuspended in lysis buffer as described above. Proteins were then separated by SDS-PAGE and transferred to nitrocellulose membranes (Bio-Rad). […] Antibody-protein complexes were detected using enhanced chemiluminescence (ECL) immunoblotting detection reagent (EMD Millipore).
Immunocytochemistry and cytochemistry. […] Glucose uptake was monitored by incubating cells in 200 μM 2-NBDG (ThermoFisher) for 6 hours prior to fixation. Fluorescence was observed under the Nikon Eclipse TE200 Inverted microscope (Nikon Instruments Inc., Melville, N.Y., USA). […] Rpb1 levels were measured using the MEASURE feature of ImageJ where all the background signals were subtracted from the intergrated density of nuclear Rpb1.

SMILES | IC50 [1] [nM] | IC50 ([2]; Homo sapiens, DLD-1, GLUT1 knockout cell line, hypoxic conditions (1% oxygen)) [nM] | difference in sensitivity between DLD-1 WT and GLUT1 KO ([2]; normoxia (20% oxygen)) | effect of hypoxia on anti-proliferative effect [3] | effect of hypoxia on anti-proliferative effect [4] | effect of hypoxia on anti-proliferative effect [5] | onset of RNAPII (RPB1) degradation [6]
CC(C)[C@]12O[C@H]1[C@@H]1O[C@]13[C@]1(O[C@H]1C[C@H]1C4=C(CC[C@@]13C)C(=O)OC4)[C@@H]2OC(=O)CCC(=O)O[C@@H]1OC(CO)[C@@H](O)C(O)C1O (stereo partly shown) [Compound 10] | 500 ± 100 |  |  |  |  |  | 
CC(C)[C@]12O[C@H]1[C@@H]1O[C@]13[C@]1(O[C@H]1C[C@H]1C4=C(CC[C@@]13C)C(=O)OC4)[C@@H]2OC(=O)CCCO[C@@H]1OC(CO)[C@@H](O)C(O)C1O (stereo in doubt) [Compound 1] |  | 2500 | no difference in sensitivity | enhances the anti-proliferative effect | modest enhancement | resistance; also recorded: remains resistant | observed as early as 6 h
